# Several values for one entry are separate records, joined by “and”; a condition that tells them apart may be missing. Equal entries are not always repeated.
# How the values were obtained:
# [1] = test system: A549 (lung adenocarcinoma) cells; assay: Cytotoxicity, MTT assay, A549 cells; type: cell-based; conditions: Homo sapiens, read-out: IC50, 50% inhibition of the cell population growth, 72 h, mean ± SD
# Procedure: (§1) The cytotoxicity of the newly synthesized Schiff bases was evaluated in vitro in a panel of cultured tumor cells, assessing cell viability at scalar concentrations of the test compounds (≤500 μM) by MTT (i.e., 3-(4,5-dimethylthiazol-2-yl)-2,5-diphenyltetrazolium bromide) and Alamar Blue assays, using doxorubicin as the positive controls. Most of the compounds were tested against RD (rhabdomyosarcoma), HCT116 (intestinal carcinoma), HeLa (adenocarcinoma of the cervix uterus) and A549 (lung adenocarcinoma) cell lines, whereas five representative compounds of the subsets were tested also against K562 (chronic myelogenous leukemia) tumor cells.
# (§2) The experiments were carried out in triplicate.
# [2] = test system: RD (rhabdomyosarcoma) cells; assay: Cytotoxicity, MTT assay, RD cells; type: cell-based; conditions: Homo sapiens, read-out: IC50, 50% inhibition of the cell population growth, 72 h, mean ± SD
# Procedure: as §1, §2
# [3] = test system: HeLa (adenocarcinoma of the cervix uterus) cells; assay: Cytotoxicity, MTT assay, HeLa cells; type: cell-based; conditions: Homo sapiens, read-out: IC50, 50% inhibition of the cell population growth, 72 h, mean ± SD
# Procedure: as §1, §2
# [4] = molecular target: T1, human butyrylcholinesterase (BChE) (Homo sapiens, UniProt P06276); assay: BChE inhibition, Ellman's method; type: biochemical; conditions: mean ± SD (n = 3), n.i. = no inhibition; for % inhibition hBChE: at 10 μM
# T1 construct: BChE from human serum (50 U/mg); from tissue; host or cells: human serum
# Procedure: (§3) The ChE inhibition assay was carried out using the Ellman’s spectrophotometric method [23], as applied to the 96-well plate technique [24] on a Tecan Infinite M1000 Pro instrument (Cernusco s.N., Italy).
# [5] = molecular target: human acetylcholinesterase (AChE) (Homo sapiens, UniProt P22303); assay: biochemical; conditions: for inhibition at 10 µM: mean ± SD (n = 3), read-out: % inhibition hAChE; for IC50: human recombinant AChE, pH 8.0, mean ± SD (n = 3), read-out: IC50 hAChE
# Procedure: as §3
# [6] = test system: HCT116 (intestinal carcinoma) cells; assay: Cytotoxicity, MTT assay, HCT116 cells; type: cell-based; conditions: Homo sapiens, HCT-116, read-out: IC50, 50% inhibition of the cell population growth, 72 h, mean ± SD
# Procedure: as §1, §2
# [7] = in vitro; conditions: human
# [8] = molecular target: T2, human MAO A (Homo sapiens, UniProt P21397); assay: biochemical; conditions: human recombinant MAO A, kynuramine, mean ± SD (n = 3); read-out: IC50 hMAO A
# T2 construct: host or cells: baculovirus-infected insect cells (microsomes)
# T2 sequence (P21397 1-527): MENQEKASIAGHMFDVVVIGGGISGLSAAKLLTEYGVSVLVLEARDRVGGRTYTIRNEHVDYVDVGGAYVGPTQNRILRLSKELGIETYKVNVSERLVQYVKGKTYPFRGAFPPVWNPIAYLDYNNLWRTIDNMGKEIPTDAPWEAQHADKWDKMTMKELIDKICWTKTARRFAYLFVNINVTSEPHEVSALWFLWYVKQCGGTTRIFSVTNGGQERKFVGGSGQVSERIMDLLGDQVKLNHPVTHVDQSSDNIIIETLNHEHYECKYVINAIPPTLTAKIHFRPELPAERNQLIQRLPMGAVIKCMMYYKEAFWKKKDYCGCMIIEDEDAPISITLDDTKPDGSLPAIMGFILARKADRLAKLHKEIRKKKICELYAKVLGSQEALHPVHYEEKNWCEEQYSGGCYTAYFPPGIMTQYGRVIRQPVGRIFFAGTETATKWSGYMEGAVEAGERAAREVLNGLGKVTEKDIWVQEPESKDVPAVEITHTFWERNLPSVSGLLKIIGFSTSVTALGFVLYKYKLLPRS
# Procedure: (§4) The inhibition of human recombinant MAO A (250 U/mg) and B (59 U/mg; microsomes from baculovirus-infected insect cells) was evaluated using the reported 96-well plate technique [12]. on a Tecan Infinite M1000 Pro instrument (Cernusco s.N., Italy). […] After addition of the enzyme and 30 min of incubation, NaOH was added and the fluorescence read at the 310/400 excitation/emission wavelength.
# [9] = molecular target: T3, β-amyloid (Aβ)1–40 self-aggregation (Homo sapiens, UniProt P05067); assay: Inhibition of self-induced Aβ40 aggregation, thioflavin T fluorescence; type: biochemical; conditions: Aβ40 30 μM, 2% HFIP, ThT, mean ± SD (n = 3); for IC50: PBS pH 7.4, 2 h
# T3 construct: self-aggregation of Aβ peptides 1–40 (Aβ40)
# Procedure: Molecules able to inhibit simultaneously AChE and β-amyloid (Aβ) aggregation/neurotoxicity may have potential as drugs for the treatment of AD [14]. Herein, the new DHPPIQ derivatives were evaluated for the inhibitory effects on the self-aggregation of Aβ peptides 1–40 (Aβ40), through a test based on the measurement of thioflavin T (ThT) fluorescence. Quercetin, which is a strong inhibitor of in vitro Aβ self-aggregation, was used as a positive control.
# Each compound was initially tested at a 100-μM concentration. […] […].
# According to an already reported 96-well plate procedure, the test compounds at 100 μM were incubated with Aβ40 (30 μM) and 2% HFIP (1,1,1,3,3,3-hexafluoro-2-propanol), used as aggregation enhancer in PBS pH 7.4 for 2 h at room temperature. After the addition of ThT, the fluorescence was read at the 440/485 nm excitation/emission wavelength. Experiments were performed in triplicate, and the % inhibition values calculated as mean ± SD.
# [10] = molecular target: T4, human MAO B (Homo sapiens, UniProt P27338); assay: biochemical; conditions: at 10 μM, mean ± SD (n = 3); read-out: % inhibition hMAO B
# T4 construct: host or cells: baculovirus-infected insect cells (microsomes)
# T4 sequence (P27338 1-520): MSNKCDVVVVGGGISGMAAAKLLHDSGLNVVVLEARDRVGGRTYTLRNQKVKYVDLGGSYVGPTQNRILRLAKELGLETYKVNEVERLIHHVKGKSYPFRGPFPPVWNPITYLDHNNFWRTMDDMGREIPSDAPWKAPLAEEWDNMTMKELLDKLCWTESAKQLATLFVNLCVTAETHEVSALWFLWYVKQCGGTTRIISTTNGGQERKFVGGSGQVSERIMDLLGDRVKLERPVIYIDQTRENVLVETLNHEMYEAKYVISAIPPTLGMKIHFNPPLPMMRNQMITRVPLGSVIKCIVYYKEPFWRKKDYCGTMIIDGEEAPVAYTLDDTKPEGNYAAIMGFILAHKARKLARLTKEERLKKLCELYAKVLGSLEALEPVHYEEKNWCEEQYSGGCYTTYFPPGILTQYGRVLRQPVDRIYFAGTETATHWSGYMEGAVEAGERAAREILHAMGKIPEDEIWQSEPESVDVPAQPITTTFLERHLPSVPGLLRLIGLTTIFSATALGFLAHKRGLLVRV
# Procedure: as §4
# [11] = test system: K562 (chronic myelogenous leukemia) cells; assay: Cytotoxicity, Alamar Blue (resazurin) assay, K562 cells; type: cell-based; conditions: Homo sapiens, read-out: IC50, 50% inhibition of the cell population growth, 72 h, mean ± SD
# Procedure: as §1, §2
# T3 sequence (P05067 672-711 limits assumed): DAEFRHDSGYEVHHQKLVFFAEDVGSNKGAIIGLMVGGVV
# Chain of human acetylcholinesterase (AChE) (P22303 32-614): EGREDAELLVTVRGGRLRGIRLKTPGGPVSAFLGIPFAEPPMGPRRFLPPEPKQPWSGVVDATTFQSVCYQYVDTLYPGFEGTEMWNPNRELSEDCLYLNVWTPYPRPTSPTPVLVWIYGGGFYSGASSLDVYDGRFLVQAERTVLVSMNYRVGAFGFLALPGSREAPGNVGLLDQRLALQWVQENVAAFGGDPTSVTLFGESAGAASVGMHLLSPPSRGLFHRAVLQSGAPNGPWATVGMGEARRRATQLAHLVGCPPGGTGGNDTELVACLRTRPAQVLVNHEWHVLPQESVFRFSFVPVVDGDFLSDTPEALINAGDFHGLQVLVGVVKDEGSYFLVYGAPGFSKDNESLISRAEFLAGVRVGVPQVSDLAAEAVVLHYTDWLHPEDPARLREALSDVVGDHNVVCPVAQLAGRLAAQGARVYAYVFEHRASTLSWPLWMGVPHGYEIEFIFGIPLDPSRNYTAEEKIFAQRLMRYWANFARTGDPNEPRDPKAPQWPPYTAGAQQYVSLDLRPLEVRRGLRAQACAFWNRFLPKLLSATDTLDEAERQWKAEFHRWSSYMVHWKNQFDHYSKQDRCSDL
# T1 sequence (P06276 29-602): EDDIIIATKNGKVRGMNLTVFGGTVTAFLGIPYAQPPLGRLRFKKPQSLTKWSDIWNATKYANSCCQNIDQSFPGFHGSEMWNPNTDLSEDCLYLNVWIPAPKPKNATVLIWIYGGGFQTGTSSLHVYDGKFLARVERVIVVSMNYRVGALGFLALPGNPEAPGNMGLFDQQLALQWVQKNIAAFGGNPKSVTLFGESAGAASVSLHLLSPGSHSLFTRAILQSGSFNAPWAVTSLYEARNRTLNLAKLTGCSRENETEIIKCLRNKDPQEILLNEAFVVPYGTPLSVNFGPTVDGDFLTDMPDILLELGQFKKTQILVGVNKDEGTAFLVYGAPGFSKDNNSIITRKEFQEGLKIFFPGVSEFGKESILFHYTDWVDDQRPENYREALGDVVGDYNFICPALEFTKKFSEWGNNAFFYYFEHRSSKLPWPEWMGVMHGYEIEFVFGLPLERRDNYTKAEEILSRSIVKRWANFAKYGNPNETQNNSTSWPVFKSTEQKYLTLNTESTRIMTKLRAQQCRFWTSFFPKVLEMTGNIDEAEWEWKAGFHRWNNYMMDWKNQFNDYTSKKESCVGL
SMILES,IC50 [1] [µM],IC50 [2] [µM],IC50 [3] [µM],% inhibition hBChE [4],inhibition at 10 µM [5] [%],IC50 [6] [µM],IC50 at 72 h [7] [µM],IC50 [8] [µM],IC50 [9] [µM],inhibition at 10 µM ([4]; read-out: % inhibition hBChE) [%],inhibition at 10 µM [10] [%],IC50 [5],IC50 [11] [µM],inhibition at 100 µM [9] [%],inhibition mechanism on hAChE ([5]; Michaelis-Menten / Lineweaver-Burk plots),"Ki ([5]; complete kinetics, human AChE, read-out: inhibition constant (Ki) hAChE) [µM]"
COc1cc2c(cc1OC)-c1c(-c3ccc(F)cc3)c(C=O)cn1CC2 [Compound 5],41.3 ± 2,17.8 ± 0.4,33.8 ± 1,n.i.,33 ± 4,32.2 ± 0.3,,,,,,,,,,
"CC[C@@]1(O)C(=O)OCc2c1cc1n(c2=O)Cc2cc3ccccc3nc2-1 [Camptothecin, reference compound]",,,,,,,0.272 ± 0.01,,,,,,,,,
"CCOc1ccc(-c2c(/C=N/c3ccc(/N=C/c4cn5c(c4-c4ccc(OCC)c(OCC)c4)-c4cc(OCC)c(OCC)cc4CC5)cc3)cn3c2-c2cc(OCC)c(OCC)cc2CC3)cc1OCC [Compound 13a, (1E,1’E)-N,N’-(1,4-phenylene)bis(1-(1-[3,4-diethoxyphenyl]-8,9-diethoxy-5,6-dihydropyrrolo[2,1-a]isoquinolin-2-yl)methanimine)-1,4-diaminium dichloride]",240 ± 18,390 ± 19,205 ± 10,,,103 ± 8,101 ± 6,12.3 ± 1.1,42 ± 3,11 ± 3,31 ± 3,13 µM and 13.1 µM,,,,
"CCOc1ccc(-c2c(/C=N/CC/N=C/c3cn4c(c3-c3ccc(OCC)c(OCC)c3)-c3cc(OCC)c(OCC)cc3CC4)cn3c2-c2cc(OCC)c(OCC)cc2CC3)cc1OCC [Compound 19, (1E,1’E)-N,N’-(ethane-1,2-diyl)bis(1-(1-(3,4-diethoxyphenyl)-8,9-diethoxy-5,6-dihydropyrrolo[2,1-a]isoquinolin-2-yl)methanimine)]",,65.1 ± 7.3,84 ± 1.3,n.i.,37 ± 2,401 ± 8,,,,,,,290 ± 12,48 ± 3,,
"CCOc1ccc(-c2c(/C=N/c3ccc(OC)cc3)cn3c2-c2cc(OCC)c(OCC)cc2CC3)cc1OCC [Compound 7, (E)-1-(1-(3,4-diethoxyphenyl)-8,9-diethoxy-5,6-dihydropyrrolo[2,1-a]isoquinolin-2-yl)-N-(4-methoxyphenyl)methanimine]",79.5 ± 6.8,132 ± 4,34.9 ± 1.8,n.i.,,38.5 ± 6.6,,,78 ± 5.1,,,20.2 ± 3.1 µM,171 ± 12,,,
"COc1ccc(/N=C/c2c(-c3ccc(Cl)cc3)c3n(c2-c2ccccc2)CCc2cc(OC)c(OC)cc2-3)cc1 [Compound 10, (E)-1-(1-(4-chlorophenyl)-8,9-dimethoxy-3-phenyl-5,6-dihydropyrrolo[2,1-a]isoquinolin-2-yl)-N-(4-methoxyphenyl)methanimine]",,,,n.i.,35 ± 7,211 ± 9,,,,,,,,42 ± 5,,
"COc1cccc2c1C(=O)c1c(O)c3c(c(O)c1C2=O)C[C@@](O)(C(=O)CO)C[C@@H]3O[C@H]1C[C@H](N)[C@H](O)[C@H](C)O1 [Doxorubicin, reference compound]",0.38 ± 0.021,0.29 ± 0.021,0.892 ± 0.013,,,0.142 ± 0.011,,,,,,,1.75 ± 0.06,,,
COc1cc2c(cc1OC)-c1c(-c3ccc(Cl)cc3)c(C=O)c(-c3ccccc3)n1CC2 [Compound 4],105 ± 11,163 ± 20,109 ± 5,n.i.,,252 ± 11,,,,,,7.9 ± 0.13 µM,,35 ± 6,noncompetitive/mixed-type mechanism,3.58 ± 0.04
"CCOc1ccc(-c2c(/C=N/CCCN(C)C)cn3c2-c2cc(OCC)c(OCC)cc2CC3)cc1OCC.Cl.Cl [Compound 16a, (E)-N^1-((1-[3,4-diethoxyphenyl]-8,9-diethoxy-5,6-dihydropyrrolo[2,1-a]isoquinolin-2-yl)methylene)-N^3,N^3-dimethylpropane-1,3-diaminium chloride]",85.1 ± 0.2,72.8 ± 4.6,63.1 ± 3.1,n.i.,32 ± 2,60.5 ± 0.7,,,,,,,,48 ± 4,,
COc1cc2c(cc1OC)-c1c(-c3ccc(Cl)cc3)c(C=O)cn1CC2 [Compound 3],38.6 ± 3.2,17.6 ± 3.2,33 ± 4.5,n.i.,32 ± 3,22 ± 4,,,66 ± 2.2,,,,,,,
"COc1cc2c(cc1OC)-c1c(-c3ccc(Cl)cc3)c(/C=N/c3ccc(/N=C/c4c(-c5ccc(Cl)cc5)c5n(c4-c4ccccc4)CCc4cc(OC)c(OC)cc4-5)cc3)c(-c3ccccc3)n1CC2 [Compound 15a, (1E,1’E)-N,N’-(1,4-phenylene)bis(1-(1-[4-chlorophenyl]-8,9-dimethoxy-3-phenyl-5,6-dihydropyrrolo[2,1-a]isoquinolin-2-yl)methanimine)-1,4-diaminium dichloride]",120 ± 3.5,149 ± 3,93.4 ± 2.6,n.i.,25 ± 3,102 ± 5,,,50 ± 6.3,,,,251 ± 17,,,
COc1cc2c(cc1OC)-c1c(-c3ccc(F)cc3)c(C=O)c(-c3ccccc3)n1CC2 [Compound 6],,91.1 ± 10.9,,,,261 ± 13,,,,,,,,,,
